Results published in PubChem BioAssay (NCI).
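Exposure lasted 48 hours, with cells grown in 96-well plates and compounds tested at five concentrations. The concentration for full growth arrest is given as TGI.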

Key:
Experiment in all cases: NCI tumour cell line growth inhibition, 48 h
OVCAR-3 ovarian = tested on: OVCAR-3 ovarian
DMS 273 small cell lung = tested on: DMS 273 small cell lung
SK-MEL-28 melanoma = tested on: SK-MEL-28 melanoma
M19-MEL melanoma = tested on: M19-MEL melanoma
NCI-H460 lung = tested on: NCI-H460 lung
SNB-75 CNS = tested on: SNB-75 CNS
SN12C renal = tested on: SN12C renal
KM12 colon = tested on: KM12 colon
U251 CNS = tested on: U251 CNS
SNB-19 CNS = tested on: SNB-19 CNS
HOP-62 NSCLC = tested on: HOP-62 NSCLC
LXFL 529 NSCLC = tested on: LXFL 529 NSCLC
HT29 colon = tested on: HT29 colon
SF-539 CNS = tested on: SF-539 CNS
SF-295 CNS = tested on: SF-295 CNS
CAKI-1 renal = tested on: CAKI-1 renal
DMS 114 small cell lung = tested on: DMS 114 small cell lung
A549 NSCLC = tested on: A549 NSCLC
HCT-116 colon = tested on: HCT-116 colon
SK-OV-3 ovarian = tested on: SK-OV-3 ovarian
K-562 leukemia = tested on: K-562 leukemia
SR leukemia = tested on: SR leukemia
KM20L2 colon = tested on: KM20L2 colon
XF 498 CNS = tested on: XF 498 CNS
MALME-3M melanoma = tested on: MALME-3M melanoma
ACHN renal = tested on: ACHN renal
SK-MEL-5 melanoma = tested on: SK-MEL-5 melanoma
OVCAR-5 ovarian = tested on: OVCAR-5 ovarian
UO-31 renal = tested on: UO-31 renal
CCRF-CEM leukemia = tested on: CCRF-CEM leukemia
TK-10 renal = tested on: TK-10 renal
IGROV1 ovarian = tested on: IGROV1 ovarian
RXF-631 renal = tested on: RXF-631 renal
OVCAR-8 ovarian = tested on: OVCAR-8 ovarian
NCI-H23 lung = tested on: NCI-H23 lung
HCC-2998 colon = tested on: HCC-2998 colon
HOP-92 NSCLC = tested on: HOP-92 NSCLC
SW-620 colon = tested on: SW-620 colon
HL-60(TB) leukemia = tested on: HL-60(TB) leukemia
COLO 205 colon = tested on: COLO 205 colon
RPMI-8226 leukemia = tested on: RPMI-8226 leukemia
MOLT-4 leukemia = tested on: MOLT-4 leukemia
EKVX NSCLC = tested on: EKVX NSCLC
OVCAR-4 ovarian = tested on: OVCAR-4 ovarian
NCI-H522 lung = tested on: NCI-H522 lung
786-0 renal = tested on: 786-0 renal
HOP-18 NSCLC = tested on: HOP-18 NSCLC
M14 melanoma = tested on: M14 melanoma
LOX IMVI melanoma = tested on: LOX IMVI melanoma
UACC-62 melanoma = tested on: UACC-62 melanoma
DLD-1 colon = tested on: DLD-1 colon
SK-MEL-2 melanoma = tested on: SK-MEL-2 melanoma
NCI-H226 lung = tested on: NCI-H226 lung
SNB-78 CNS = tested on: SNB-78 CNS
RXF 393 renal = tested on: RXF 393 renal
A498 renal = tested on: A498 renal
HCT-15 colon = tested on: HCT-15 colon
SF-268 CNS = tested on: SF-268 CNS
UACC-257 melanoma = tested on: UACC-257 melanoma
P388 leukemia = tested on: P388 leukemia
P388/ADR leukemia = tested on: P388/ADR leukemia
SN12K1 renal = tested on: SN12K1 renal
MCF7 breast = tested on: MCF7 breast
NCI/ADR-RES ovarian = tested on: NCI/ADR-RES ovarian

With O=c1[nH]c(=O)n(C2OC(CO)C(O)C2O)cc1NN=NCc1ccccc1 (centres undefined) the TGI (OVCAR-3 ovarian) was > 100 µM, the TGI (DMS 273 small cell lung) was > 100 µM and the TGI (SK-MEL-28 melanoma) was > 100 µM. The TGI (M19-MEL melanoma) was > 100 µM, the TGI (NCI-H460 lung) was > 100 µM and the TGI (SNB-75 CNS) was > 100 µM. The TGI (SN12C renal) was > 100 µM, the TGI (KM12 colon) was > 100 µM and the TGI (U251 CNS) was > 100 µM. The TGI (SNB-19 CNS) was > 100 µM, the TGI (HOP-62 NSCLC) was > 100 µM and the TGI (LXFL 529 NSCLC) was > 100 µM. For the same compound, the TGI (HT29 colon) was > 100 µM, the TGI (SF-539 CNS) was > 100 µM and the TGI (SF-295 CNS) was > 100 µM. The TGI (CAKI-1 renal) was > 100 µM, the TGI (DMS 114 small cell lung) was 99.1 µM and the TGI (A549 NSCLC) was > 100 µM. For the same compound, the TGI (HCT-116 colon) was > 80.1 µM, the TGI (SK-OV-3 ovarian) was > 100 µM and the TGI (K-562 leukemia) was > 100 µM. For the same compound, the TGI (SR leukemia) was > 100 µM, the TGI (KM20L2 colon) was > 100 µM and the TGI (XF 498 CNS) was > 100 µM. For the same compound, the TGI (MALME-3M melanoma) was > 100 µM, the TGI (ACHN renal) was > 100 µM and the TGI (SK-MEL-5 melanoma) was > 100 µM. The TGI (OVCAR-5 ovarian) was > 100 µM, the TGI (UO-31 renal) was > 100 µM and the TGI (CCRF-CEM leukemia) was > 100 µM. The TGI (TK-10 renal) was > 100 µM, the TGI (IGROV1 ovarian) was > 100 µM and the TGI (RXF-631 renal) was > 100 µM. The TGI (OVCAR-8 ovarian) was > 100 µM, the TGI (NCI-H23 lung) was > 100 µM and the TGI (HCC-2998 colon) was > 100 µM. The TGI (HOP-92 NSCLC) was > 100 µM, the TGI (SW-620 colon) was > 67.8 µM and the TGI (HL-60(TB) leukemia) was > 96.8 µM. For the same compound, the TGI (COLO 205 colon) was > 100 µM, the TGI (RPMI-8226 leukemia) was > 76.2 µM and the TGI (MOLT-4 leukemia) was > 100 µM. For the same compound, the TGI (EKVX NSCLC) was > 100 µM, the TGI (OVCAR-4 ovarian) was > 100 µM and the TGI (NCI-H522 lung) was > 100 µM. The TGI (786-0 renal) was > 100 µM, the TGI (HOP-18 NSCLC) was > 100 µM and the TGI (M14 melanoma) was > 100 µM. The TGI (LOX IMVI melanoma) was > 100 µM, the TGI (UACC-62 melanoma) was > 100 µM and the TGI (DLD-1 colon) was > 77.4 µM. The TGI (SK-MEL-2 melanoma) was > 100 µM, the TGI (NCI-H226 lung) was > 100 µM and the TGI (SNB-78 CNS) was > 100 µM. For the same compound, the TGI (RXF 393 renal) was > 100 µM, the TGI (A498 renal) was > 100 µM and the TGI (HCT-15 colon) was > 100 µM. For the same compound, the TGI (SF-268 CNS) was > 100 µM and the TGI (UACC-257 melanoma) was > 100 µM.

With O=C(O)c1ccc(Nc2c3ccccc3nc3ccccc23)cc1 the TGI (OVCAR-3 ovarian) was > 100 µM, the TGI (DMS 273 small cell lung) was > 100 µM and the TGI (SK-MEL-28 melanoma) was > 100 µM. The TGI (M19-MEL melanoma) was > 100 µM, the TGI (NCI-H460 lung) was > 100 µM and the TGI (SNB-75 CNS) was > 100 µM. For the same compound, the TGI (P388 leukemia) was > 46.6 µM, the TGI (SN12C renal) was > 100 µM and the TGI (KM12 colon) was > 100 µM. The TGI (U251 CNS) was > 100 µM, the TGI (SNB-19 CNS) was > 100 µM and the TGI (HOP-62 NSCLC) was > 100 µM. For the same compound, the TGI (HT29 colon) was > 100 µM, the TGI (SF-539 CNS) was > 100 µM and the TGI (SF-295 CNS) was > 100 µM. The TGI (CAKI-1 renal) was > 100 µM, the TGI (DMS 114 small cell lung) was > 100 µM and the TGI (A549 NSCLC) was > 100 µM. The TGI (HCT-116 colon) was > 100 µM, the TGI (SK-OV-3 ovarian) was > 100 µM and the TGI (P388/ADR leukemia) was 98.4 µM. For the same compound, the TGI (K-562 leukemia) was > 100 µM, the TGI (KM20L2 colon) was > 100 µM and the TGI (MALME-3M melanoma) was > 100 µM. The TGI (SK-MEL-5 melanoma) was > 100 µM, the TGI (OVCAR-5 ovarian) was > 100 µM and the TGI (UO-31 renal) was > 100 µM. The TGI (CCRF-CEM leukemia) was > 100 µM, the TGI (IGROV1 ovarian) was > 100 µM and the TGI (OVCAR-8 ovarian) was > 100 µM. The TGI (SN12K1 renal) was > 100 µM, the TGI (NCI-H23 lung) was > 100 µM and the TGI (HCC-2998 colon) was > 100 µM. For the same compound, the TGI (HOP-92 NSCLC) was > 100 µM, the TGI (SW-620 colon) was > 100 µM and the TGI (HL-60(TB) leukemia) was > 100 µM. The TGI (COLO 205 colon) was > 100 µM, the TGI (RPMI-8226 leukemia) was > 100 µM and the TGI (MOLT-4 leukemia) was > 83.9 µM. For the same compound, the TGI (EKVX NSCLC) was > 100 µM, the TGI (OVCAR-4 ovarian) was > 100 µM and the TGI (MCF7 breast) was > 100 µM. The TGI (NCI-H522 lung) was > 100 µM, the TGI (HOP-18 NSCLC) was > 100 µM and the TGI (LOX IMVI melanoma) was > 100 µM. For the same compound, the TGI (NCI/ADR-RES ovarian) was > 100 µM, the TGI (UACC-62 melanoma) was > 100 µM and the TGI (SK-MEL-2 melanoma) was > 100 µM. The TGI (NCI-H226 lung) was > 100 µM, the TGI (SNB-78 CNS) was > 100 µM and the TGI (RXF 393 renal) was > 100 µM. For the same compound, the TGI (A498 renal) was > 100 µM, the TGI (HCT-15 colon) was > 100 µM and the TGI (SF-268 CNS) was > 100 µM. The TGI (UACC-257 melanoma) was > 100 µM.
